One experiment concerns D. immitis microfilariae. Put plainly: Dirofilaria immitis, microfilariae (DiMF) in vitro motility assay. The following applies: Dirofilaria immitis, 72 h, read-out: DiMF minimally effective dose (MEC). The format is cell-based.
The next experiment has as its system Haemonchus contortus L3. The experiment is described as follows: microbe, parasite or virus in culture. The class given is cell-based. The following applies: Haemonchus contortus, 96 h, read-out: HcL3 Minimal Effective Concentration (MEC).

In patent US10570129B2 (Zoetis Services LLC, priority 2015, dated 2020) one finds minimal effective concentration data, which are given here for 16 molecules.

Some results are limits rather than exact numbers.

`O=C(NCc1ccnc(Cl)c1)n1c2c(c3cc(OC(F)(F)F)ccc31)CN(C/C=C/c1ccc(C(F)(F)F)cn1)CC2` [Example 385, (E)-N-((2-chloropyridin-4-yl)methyl)-8-(trifluoromethoxy)-2-(3-(5-(trifluoromethyl)pyridin-2-yl)allyl)-1,2,3,4-tetrahydro-5H-pyrido[4,3-b]indole-5-carboxamide]: the minimal effective concentration was 47.8 µM in the experiment on D. immitis microfilariae and 0.5 µM in the experiment with Haemonchus contortus L3.
For the molecule `N#Cc1ccc(/C=C/CN2CCc3c(c4cc(OC(F)(F)F)ccc4n3C(=O)NCc3ccnc(Cl)c3)C2)cc1F` [Example 386, (E)-N-((2-chloropyridin-4-yl)methyl)-2-(3-(4-cyano-3-fluorophenyl)allyl)-8-(trifluoromethoxy)-1,2,3,4-tetrahydro-5H-pyrido[4,3-b]indole-5-carboxamide], the minimal effective concentration was determined as 3.3 µM with D. immitis microfilariae and 0.2 µM in the experiment with Haemonchus contortus L3.
With `O=C(NCc1ccnc(Cl)c1)n1c2c(c3cc(OC(F)(F)F)ccc31)CN(C/C=C/c1ccc(F)cc1F)CC2` [Example 387, (E)-N-((2-chloropyridin-4-yl)methyl)-2-(3-(2,4-difluorophenyl)allyl)-8-(trifluoromethoxy)-1,2,3,4-tetrahydro-5H-pyrido[4,3-b]indole-5-carboxamide], the minimal effective concentration in the experiment with D. immitis microfilariae was 3.3 µM; in the experiment with Haemonchus contortus L3, 0.2 µM.
For `O=C(NCc1ccnc(Cl)c1)n1c2c(c3cc(OC(F)(F)F)ccc31)CN(C/C=C/c1ccc(F)c(Cl)c1)CC2` [Example 388, (E)-2-(3-(3-chloro-4-fluorophenyl)allyl)-N-((2-chloropyridin-4-yl)methyl)-8-(trifluoromethoxy)-1,2,3,4-tetrahydro-5H-pyrido[4,3-b]indole-5-carboxamide], the minimal effective concentration is over 100 µM in the experiment on D. immitis microfilariae and 1.8 µM in the experiment on Haemonchus contortus L3.
`O=C(NCc1ccnc(Cl)c1)n1c2c(c3cc(OC(F)(F)F)ccc31)CN(C/C=C/c1ccc(F)c(F)c1)CC2` [Example 389, (E)-N-((2-chloropyridin-4-yl)methyl)-2-(3-(3,4-difluorophenyl)allyl)-8-(trifluoromethoxy)-1,2,3,4-tetrahydro-5H-pyrido[4,3-b]indole-5-carboxamide]: the minimal effective concentration in the experiment on D. immitis microfilariae was determined as 10 µM; with Haemonchus contortus L3, 0.5 µM.
For the molecule `O=C(NCc1ccnc(Cl)c1)n1c2c(c3cc(OC(F)(F)F)ccc31)CN(C/C=C/c1ccc(Cl)c(Cl)c1)CC2` [Example 392, (E)-N-((2-chloropyridin-4-yl)methyl)-2-(3-(3,4-dichlorophenyl)allyl)-8-(trifluoromethoxy)-1,2,3,4-tetrahydro-5H-pyrido[4,3-b]indole-5-carboxamide], the figures for the minimal effective concentration in the experiment with D. immitis microfilariae and in the experiment on Haemonchus contortus L3 were 22.2 µM and 1 µM, respectively.
In the same order, the values of `O=C(NCc1ccnc(Cl)c1)n1c2c(c3cc(OC(F)(F)F)ccc31)CN(C/C=C/c1ccc(F)cc1)CC2` [Example 393, (E)-N-((2-chloropyridin-4-yl)methyl)-2-(3-(4-fluorophenyl)allyl)-8-(trifluoromethoxy)-1,2,3,4-tetrahydro-5H-pyrido[4,3-b]indole-5-carboxamide] are 1.5 µM and 0.4 µM.
On the same counts, the results for `COc1ccc(/C=C/CN2CCc3c(c4cc(OC(F)(F)F)ccc4n3C(=O)NCc3ccnc(Cl)c3)C2)cc1` [Example 394, (E)-N-((2-chloropyridin-4-yl)methyl)-2-(3-(4-methoxyphenyl)allyl)-8-(trifluoromethoxy)-1,2,3,4-tetrahydro-5H-pyrido[4,3-b]indole-5-carboxamide] are 6.9 µM and 1 µM.
On the same counts, the results for `O=C(NCc1ccnc(Cl)c1)n1c2c(c3cc(OC(F)(F)F)ccc31)CN(C/C=C/c1ccc(OC(F)(F)F)cc1)CC2` [Example 395, (E)-N-((2-chloropyridin-4-yl)methyl)-8-(trifluoromethoxy)-2-(3-(4-(trifluoro-methoxy)phenyl)allyl)-1,2,3,4-tetrahydro-5H-pyrido[4,3-b]indole-5-carboxamide] are 22.2 µM and 3.3 µM.
In the case of `O=C(NCc1ccnc(Cl)c1)n1c2c(c3cc(OC(F)(F)F)ccc31)CN(C/C=C/c1ccc(C(F)(F)F)cc1)CC2` [Example 396, (E)-N-((2-chloropyridin-4-yl)methyl)-8-(trifluoromethoxy)-2-(3-(4-(trifluoro-methyl)phenyl)allyl)-1,2,3,4-tetrahydro-5H-pyrido[4,3-b]indole-5-carboxamide], the minimal effective concentration in the experiment on D. immitis microfilariae was 1 µM; in the experiment on Haemonchus contortus L3 it was 3.3 µM.
On the same counts, the results for `O=C(NCc1ccnc(F)c1)n1c2c(c3cc(OC(F)(F)F)ccc31)CN(C/C=C/c1ccc(Cl)c(F)c1)CC2` [Example 401, (E)-2-(3-(4-chloro-3-fluorophenyl)allyl)-N-((2-fluoropyridin-4-yl)methyl)-8-(trifluoromethoxy)-1,2,3,4-tetrahydro-5H-pyrido[4,3-b]indole-5-carboxamide] are 18.2 µM and 0.5 µM.
Turning to `N#Cc1ccc(/C=C/CN2CCc3c(c4cc(OC(F)(F)F)ccc4n3C(=O)NCc3ccnc(F)c3)C2)cc1F` [Example 402, (E)-2-(3-(4-cyano-3-fluorophenyl)allyl)-N-((2-fluoropyridin-4-yl)methyl)-8-(trifluoromethoxy)-1,2,3,4-tetrahydro-5H-pyrido[4,3-b]indole-5-carboxamide], the minimal effective concentration with D. immitis microfilariae was determined as 5.7 µM; in the experiment on Haemonchus contortus L3, 0.3 µM.
As for `O=C(NCc1ccnc(F)c1)n1c2c(c3cc(OC(F)(F)F)ccc31)CN(C/C=C/c1ccc(F)cc1F)CC2` [Example 403, (E)-2-(3-(2,4-difluorophenyl)allyl)-N-((2-fluoropyridin-4-yl)methyl)-8-(trifluoromethoxy)-1,2,3,4-tetrahydro-5H-pyrido[4,3-b]indole-5-carboxamide], the minimal effective concentration in the experiment on D. immitis microfilariae was 18.2 µM; in the experiment with Haemonchus contortus L3, 0.3 µM.
Turning to `O=C(NCc1ccnc(F)c1)n1c2c(c3cc(OC(F)(F)F)ccc31)CN(C/C=C/c1ccc(F)c(Cl)c1)CC2` [Example 404, (E)-2-(3-(3-chloro-4-fluorophenyl)allyl)-N-((2-fluoropyridin-4-yl)methyl)-8-(trifluoromethoxy)-1,2,3,4-tetrahydro-5H-pyrido[4,3-b]indole-5-carboxamide], the minimal effective concentration stood at 18.2 µM in the experiment on D. immitis microfilariae and 1 µM in the experiment on Haemonchus contortus L3.
In the same order, the values of `O=C(NCc1ccnc(F)c1)n1c2c(c3cc(OC(F)(F)F)ccc31)CN(C/C=C/c1ccc(F)c(F)c1)CC2` [Example 405, (E)-2-(3-(3,4-difluorophenyl)allyl)-N-((2-fluoropyridin-4-yl)methyl)-8-(trifluoromethoxy)-1,2,3,4-tetrahydro-5H-pyrido[4,3-b]indole-5-carboxamide] are 5.7 µM and 0.3 µM.
`O=C(NCc1ccnc(F)c1)n1c2c(c3cc(OC(F)(F)F)ccc31)CN(C/C=C/c1cc(F)c(F)c(F)c1)CC2` [Example 406, (E)-N-((2-fluoropyridin-4-yl)methyl)-8-(trifluoromethoxy)-2-(3-(3,4,5-trifluorophenyl)allyl)-1,2,3,4-tetrahydro-5H-pyrido[4,3-b]indole-5-carboxamide]: the minimal effective concentration in the experiment on D. immitis microfilariae is 13.5 µM; in the experiment on Haemonchus contortus L3, 0.4 µM.
